Columns and labels:
[1] = system: human induced pluripotent stem cells; parameters: method as in PMID 30982602; conditions: cited from earlier work
[2] = system: C57BL/6J gptΔ mouse embryonic fibroblasts (MEFs); test: Duplex sequencing, high-resolution mutational spectra of MEFs treated with alkylating agents; type: cell-based; conditions: for predominant mutation type of mutational spectrum: doses generating no more than 50% growth inhibition; for cosine similarity of mutational spectra: with each other, with NDMA spectra from WT liver and lung, Mgmt-deficient liver, and COSMIC SBS11
Experimental: C57BL/6J gptΔ mouse embryonic fibroblasts (MEFs) were established and maintained in high glucose, GlutaMAX DMEM (Gibco) supplemented with 10% FBS (VWR Life Sciences), sodium pyruvate (1 mM, Gibco), penicillin (100 IU) and streptomycin (100 μg/ml) (Corning) as previously described ([40]). […] For growth-inhibition assays, 2.5 × 10^4 cells were seeded in 6-well plates and incubated overnight. Cells were treated with SN1 alkylating agents as follows. TMZ (Sigma-Aldrich): 50, 100 and 200 μM (stock solutions in DMSO (Sigma-Aldrich)) in FBS-free complete media for 24 h. STZ (Sigma-Aldrich): 500, 1000 and 2000 μM (stock solutions in 0.1 M citrate buffer, pH 4.5) in HBSS, pH 7.4 for 6 h. MNU (Sigma-Aldrich): 125, 250 and 500 μM (stock solutions in 0.1 M citrate buffer, pH 4.5) in HBSS, pH 7.4 for 1 h. After the treatments, cells were washed in PBS (Gibco) and cultured in complete media for another 48 h. Cell growth was analyzed by determining percentages of cell numbers from treatment and untreated control groups by Coulter counter. For gpt assays, 4 × 10^5 cells were seeded into 15 cm tissue culture dishes (4 dishes per group) and treated with TMZ, STZ and MNU, as described above, at 60–70% confluence. Viable cells were harvested and washed twice in PBS.
The gptΔ assay as described above was also performed on MEFs derived from the gptΔ mouse (see above) that were treated with the toxicants studied here. For the cell culture studies, genomic DNA from 2 × 10^6 cells per group was prepared using the MegaLong DNA Isolation Kit (G-Biosciences) according to the manufacturer's instructions.
To determine the identity of mutations and the sequence contexts in which they occur, we utilized a form of error-corrected sequencing called duplex sequencing (DS). Previously, we described how DS can be used directly on genomic samples derived from the gptΔ mouse to yield high-resolution mutational spectra in an unbiased (unselected) manner ([49]). Unlike the traditional gptΔ assay, DS evaluates the mutations throughout the entire 6382 bp transgenic region (which contains the gpt gene), without the need for a phenotypic selection. In the present work, 6.4 kb gpt-containing plasmids from gptΔ mouse livers and cell culture were isolated using a Miniprep Kit (Qiagen) following instructions of the manufacturer. Approximately 6 μg of plasmid DNA was diluted in 1× TE buffer-low EDTA, pH 8 (Thermo Scientific), transferred to a microTUBE AFA Fiber Pre-Slit Snap-Cap (Covaris) and sonicated using a Covaris E220 Focused-ultrasonicator. The following program was used to obtain 300–350 bp fragments: peak incident power = 140 W, duty factor = 10%, cycles per burst = 200, treatment time = 80 s, temperature = 4–7°C. DS libraries for gptΔ C57BL/6J mice and MEFs were prepared using the NEBNext Ultra II DNA Library Prep (E7103, NEB) or as described in Chawanthayatham et al. ([49]) and sequenced on a NextSeq500 or NovaSeq 6000 Illumina platform by using a 150 bp paired-end protocol (MIT BioMicro Center). DS libraries for the gptΔ mouse lungs and Mgmt^−/− mice were prepared using an input of 1 μg or 500 ng genomic DNA, respectively, using a TwinStrand Biosciences, Inc. Mouse Mutagenesis Kit according to the manufacturer's protocol. This kit uses probes that hybridize to 20 genomic regions, each 2.4 kb long. The genomic coordinates are provided in Supplementary Table S1. These probes were purposely selected to map in intronic and intergenic regions, to avoid selection bias. The libraries were sequenced on an Illumina NovaSeq 6000 DNA sequencer on an S4 flow cell using a 150 bp paired-end protocol (MIT BioMicro Center).
For each sample, the two fastq files generated by the Illumina sequencer were converted into an unaligned bam file, using Picard Tools. The resulting bam file was processed using UnifiedConsensusMaker.py (version 3.0) as available from the Kennedy Lab at University of Washington (https://github.com/Kennedy-Lab-UW/Duplex-Sequencing). […]

## CN(N=O)C(N)=O [MNU, N-methyl-N-nitrosourea]
[1]
  dominant mutation type of mutational spectrum: AT→GC mutations
[2]
  sequence context of mutations: 5’-PuGN-3’
  predominant mutation type of mutational spectrum: GC→AT mutations
  cosine similarity of mutational spectra: > 0.9

## CN(N=O)C(=O)NC1C(O)OC(CO)C(O)C1O (centres unmarked) [STZ, streptozotocin]
[2]
  sequence context of mutations: 5’-PuGN-3’
  predominant mutation type of mutational spectrum: GC→AT mutations
  cosine similarity of mutational spectra: > 0.9

## Cn1nnc2c(C(N)=O)ncn2c1=O [TMZ, temozolomide]
[1]
  dominant mutation type of mutational spectrum: AT→GC mutations
[2]
  sequence context of mutations: 5’-PuGN-3’
  predominant mutation type of mutational spectrum: GC→AT mutations
  cosine similarity of mutational spectra: > 0.9

Source: PMC10041537, “Molecular origins of mutational spectra produced by the environmental carcinogen N-nitrosodimethylamine and SN1 chemotherapeutic agents” (NAR Cancer, 2023)
